# Laboratory results from PubChem BioAssay AID2060487 (Molecular Pharmacology Branch, DTP, NCI, 2025).
# System: 997537-175-T-J1-PDC complex spheroid viability
# Assay: Anticancer human tumor 997537-175-T-J1-PDC patient-derived colon adenocarcinoma cell line growth inhibition [GQUAD]
# Conditions: for IC50: curve of first compound; for viability, T/C: stronger effect = lower value
# Procedure, shortened: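 Tumor cells were grown as complex spheroids with HUVEC endothelial cells and mesenchymal stem cells as stroma. G-quadruplex stabilizers were combined with targeted agents over half-log dilutions from near the clinical Cmax, or from 10 microM.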
# [1] = second compound 0.0316 µM, first compound 0.0316 µM
# [2] = second compound 0.0316 µM, first compound 0.1 µM
# [3] = second compound 0.0316 µM, first compound 0.316 µM
# [4] = second compound 0.0316 µM, first compound 1 µM
# [5] = second compound 0.0316 µM, first compound 3.16 µM
# [6] = second compound 0.0316 µM, first compound 10 µM
# [7] = second compound 0.1 µM, first compound 0.0316 µM
# [8] = second compound 0.1 µM, first compound 0.1 µM
# [9] = second compound 0.1 µM, first compound 0.316 µM
# [10] = second compound 0.1 µM, first compound 1 µM
# [11] = second compound 0.1 µM, first compound 3.16 µM
# [12] = second compound 0.1 µM, first compound 10 µM
# [13] = second compound 0.316 µM, first compound 0.0316 µM
# [14] = second compound 0.316 µM, first compound 0.1 µM
# [15] = second compound 0.316 µM, first compound 0.316 µM
# [16] = second compound 0.316 µM, first compound 1 µM
# [17] = second compound 0.316 µM, first compound 3.16 µM
# [18] = second compound 0.316 µM, first compound 10 µM
# [19] = second compound 1 µM, first compound 0.0316 µM
# [20] = second compound 1 µM, first compound 0.1 µM
# [21] = second compound 1 µM, first compound 0.316 µM
# [22] = second compound 1 µM, first compound 1 µM
# [23] = second compound 1 µM, first compound 3.16 µM
# [24] = second compound 1 µM, first compound 10 µM
# [25] = second compound 3.16 µM, first compound 0.0316 µM
# [26] = second compound 3.16 µM, first compound 0.1 µM
# [27] = second compound 3.16 µM, first compound 0.316 µM
# [28] = second compound 3.16 µM, first compound 1 µM
# [29] = second compound 3.16 µM, first compound 3.16 µM
# [30] = second compound 3.16 µM, first compound 10 µM
# [31] = second compound 10 µM, first compound 0.0316 µM
# [32] = second compound 10 µM, first compound 0.1 µM
# [33] = second compound 10 µM, first compound 0.316 µM
# [34] = second compound 10 µM, first compound 1 µM
# [35] = second compound 10 µM, first compound 3.16 µM
# [36] = second compound 10 µM, first compound 10 µM
# 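Note: spheroids exposed to the agents for 7 days.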
# 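Throughout, for viability, T/C: 100% = DMSO vehicle control viability.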
compound,measurement,setting,value
CCCS(=O)(=O)Nc1ccc(F)c(C(=O)c2c[nH]c3ncc(-c4ccc(Cl)cc4)cc23)c1F + Cc1cnc(CNC(=O)c2c(=O)c3ccc(N4CCCN(C)CC4)nc3n3c2sc2ccccc23)cn1,IC50,second compound 0.0316 µM,1900 nM
same,IC50,second compound 0.1 µM,1760 nM
same,IC50,second compound 0.316 µM,778 nM
same,IC50,second compound 1 µM,739 nM
same,IC50,second compound 3.16 µM,1890 nM
same,IC50,second compound 10 µM,1460 nM
same,"viability, T/C",[1],77.7%
same,"viability, T/C",[2],50.8%
same,"viability, T/C",[3],67.3%
same,"viability, T/C",[4],44.8%
same,"viability, T/C",[5],56.2%
same,"viability, T/C",[6],22.2%
same,"viability, T/C",[7],73.8%
same,"viability, T/C",[8],64.7%
same,"viability, T/C",[9],76.1%
same,"viability, T/C",[10],40.8%
same,"viability, T/C",[11],53.1%
same,"viability, T/C",[12],21.6%
same,"viability, T/C",[13],93.5%
same,"viability, T/C",[14],56.2%
same,"viability, T/C",[15],60%
same,"viability, T/C",[16],45.7%
same,"viability, T/C",[17],55.2%
same,"viability, T/C",[18],21.8%
same,"viability, T/C",[19],84.3%
same,"viability, T/C",[20],62.7%
same,"viability, T/C",[21],48.4%
same,"viability, T/C",[22],56.3%
same,"viability, T/C",[23],48.2%
same,"viability, T/C",[24],27.7%
same,"viability, T/C",[25],82.7%
same,"viability, T/C",[26],58.6%
same,"viability, T/C",[27],62.2%
same,"viability, T/C",[28],64.7%
same,"viability, T/C",[29],42.8%
same,"viability, T/C",[30],26.1%
same,"viability, T/C",[31],83.6%
same,"viability, T/C",[32],74.2%
same,"viability, T/C",[33],68.8%
same,"viability, T/C",[34],44%
same,"viability, T/C",[35],51.5%
same,"viability, T/C",[36],26.9%
COc1ncnc(C2CC2)c1-c1ncc2cnn(Cc3ccc(-c4nc(C(F)(F)F)cn4C(C)C)cc3)c2n1 + Cc1cnc(CNC(=O)c2c(=O)c3ccc(N4CCCN(C)CC4)nc3n3c2sc2ccccc23)cn1,IC50,second compound 0.0316 µM,> 10000 nM
same,IC50,second compound 0.1 µM,> 10000 nM
same,IC50,second compound 0.316 µM,> 10000 nM
same,IC50,second compound 1 µM,> 10000 nM
same,IC50,second compound 3.16 µM,> 10000 nM
same,IC50,second compound 10 µM,> 10000 nM
same,"viability, T/C",[1],118%
same,"viability, T/C",[2],78.4%
same,"viability, T/C",[3],102%
same,"viability, T/C",[4],66.6%
same,"viability, T/C",[5],55.3%
same,"viability, T/C",[6],96.1%
same,"viability, T/C",[7],95.3%
same,"viability, T/C",[8],69%
same,"viability, T/C",[9],88.5%
same,"viability, T/C",[10],92.5%
same,"viability, T/C",[11],85%
same,"viability, T/C",[12],94.5%
same,"viability, T/C",[13],89.1%
same,"viability, T/C",[14],86.2%
same,"viability, T/C",[15],89.5%
same,"viability, T/C",[16],88.5%
same,"viability, T/C",[17],91.3%
same,"viability, T/C",[18],92.7%
same,"viability, T/C",[19],73.8%
same,"viability, T/C",[20],85.1%
same,"viability, T/C",[21],100%
same,"viability, T/C",[22],101%
same,"viability, T/C",[23],121%
same,"viability, T/C",[24],97.5%
same,"viability, T/C",[25],56%
same,"viability, T/C",[26],107%
same,"viability, T/C",[27],104%
same,"viability, T/C",[28],84.7%
same,"viability, T/C",[29],106%
same,"viability, T/C",[30],97.4%
same,"viability, T/C",[31],75.3%
same,"viability, T/C",[32],109%
same,"viability, T/C",[33],101%
same,"viability, T/C",[34],92%
same,"viability, T/C",[35],102%
same,"viability, T/C",[36],116%
Cc1[nH]c2ccccc2c1CCNCc1ccc(/C=C/C(=O)NO)cc1 + Cc1cnc(CNC(=O)c2c(=O)c3ccc(N4CCCN(C)CC4)nc3n3c2sc2ccccc23)cn1,IC50,second compound 0.0316 µM,> 316 nM
same,IC50,second compound 0.1 µM,> 316 nM
same,IC50,second compound 0.316 µM,232 nM
same,IC50,second compound 1 µM,> 316 nM
same,IC50,second compound 3.16 µM,226 nM
same,IC50,second compound 10 µM,281 nM
same,"viability, T/C","second compound 0.0316 µM, first compound 0.000999 µM",87.7%
same,"viability, T/C","second compound 0.0316 µM, first compound 0.00316 µM",99%
same,"viability, T/C","second compound 0.0316 µM, first compound 0.00999 µM",98%
same,"viability, T/C",[1],80.6%
same,"viability, T/C","second compound 0.0316 µM, first compound 0.0999 µM",82.2%
same,"viability, T/C",[3],52.7%
same,"viability, T/C","second compound 0.1 µM, first compound 0.000999 µM",98.3%
same,"viability, T/C","second compound 0.1 µM, first compound 0.00316 µM",94.9%
same,"viability, T/C","second compound 0.1 µM, first compound 0.00999 µM",88.9%
same,"viability, T/C",[7],90.5%
same,"viability, T/C","second compound 0.1 µM, first compound 0.0999 µM",80.2%
same,"viability, T/C",[9],59.5%
same,"viability, T/C","second compound 0.316 µM, first compound 0.000999 µM",105%
same,"viability, T/C","second compound 0.316 µM, first compound 0.00316 µM",90.7%
same,"viability, T/C","second compound 0.316 µM, first compound 0.00999 µM",88.6%
same,"viability, T/C",[13],84.1%
same,"viability, T/C","second compound 0.316 µM, first compound 0.0999 µM",99.9%
same,"viability, T/C",[15],33.9%
same,"viability, T/C","second compound 1 µM, first compound 0.000999 µM",76.1%
same,"viability, T/C","second compound 1 µM, first compound 0.00316 µM",87.6%
same,"viability, T/C","second compound 1 µM, first compound 0.00999 µM",101%
same,"viability, T/C",[19],102%
same,"viability, T/C","second compound 1 µM, first compound 0.0999 µM",81.8%
same,"viability, T/C",[21],53.1%
same,"viability, T/C","second compound 3.16 µM, first compound 0.000999 µM",96%
same,"viability, T/C","second compound 3.16 µM, first compound 0.00316 µM",100%
same,"viability, T/C","second compound 3.16 µM, first compound 0.00999 µM",103%
same,"viability, T/C",[25],81.4%
same,"viability, T/C","second compound 3.16 µM, first compound 0.0999 µM",110%
same,"viability, T/C",[27],30.2%
same,"viability, T/C","second compound 10 µM, first compound 0.000999 µM",99.2%
same,"viability, T/C","second compound 10 µM, first compound 0.00316 µM",108%
same,"viability, T/C","second compound 10 µM, first compound 0.00999 µM",92.8%
same,"viability, T/C",[31],94.4%
same,"viability, T/C","second compound 10 µM, first compound 0.0999 µM",108%
same,"viability, T/C",[33],44.3%
